Values of other authors as cited in US9511011B2, “TRPV1 inhibitory peptides and composition for skin-aging protection or wrinkle improvement comprising the same” (SNU R&DB FOUNDATION, priority 2012, dated 2016).

Biological target: T1, TRPV1 (Homo sapiens, UniProt Q8NER1)
T1 construct: Capsaicin stimulus increases intracellular Ca^2+ level in keratinocytes, which is suppressed by capsazepine; host or cells: keratinocytes (endogenous TRPV1)
Details: keratinocytes

T1 sequence (Q8NER1 whole entry): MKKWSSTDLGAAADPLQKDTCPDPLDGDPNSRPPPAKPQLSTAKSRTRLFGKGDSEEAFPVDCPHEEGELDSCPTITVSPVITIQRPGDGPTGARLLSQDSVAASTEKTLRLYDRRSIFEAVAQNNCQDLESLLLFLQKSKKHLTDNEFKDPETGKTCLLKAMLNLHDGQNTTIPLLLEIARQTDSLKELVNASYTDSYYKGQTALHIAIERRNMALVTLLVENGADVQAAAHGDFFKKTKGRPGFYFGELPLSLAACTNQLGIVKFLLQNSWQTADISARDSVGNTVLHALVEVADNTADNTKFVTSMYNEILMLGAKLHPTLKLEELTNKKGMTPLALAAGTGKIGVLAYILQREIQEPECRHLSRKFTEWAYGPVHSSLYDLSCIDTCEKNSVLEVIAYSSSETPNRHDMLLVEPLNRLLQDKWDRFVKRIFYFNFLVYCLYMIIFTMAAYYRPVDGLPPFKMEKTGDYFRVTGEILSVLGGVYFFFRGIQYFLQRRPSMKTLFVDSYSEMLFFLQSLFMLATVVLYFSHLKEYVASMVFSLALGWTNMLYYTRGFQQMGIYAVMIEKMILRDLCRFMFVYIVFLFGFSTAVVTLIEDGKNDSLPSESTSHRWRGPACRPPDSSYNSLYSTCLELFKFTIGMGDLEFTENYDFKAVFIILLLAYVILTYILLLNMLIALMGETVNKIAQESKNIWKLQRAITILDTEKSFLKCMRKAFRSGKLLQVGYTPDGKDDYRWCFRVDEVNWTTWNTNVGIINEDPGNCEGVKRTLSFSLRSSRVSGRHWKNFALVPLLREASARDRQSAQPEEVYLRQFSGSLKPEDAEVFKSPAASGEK

SMILES: Oc1cc2c(cc1O)CN(C(=S)NCCc1ccc(Cl)cc1)CCC2 [capsazepine]
- intracellular Ca2+ level increased by capsaicin stimulus: suppressed
